Data reported in patent publication US9289411B2, “Anti-HCV agent” (NATIONAL UNIVERSITY CORPORATION OKAYAMA UNIVERSITY, priority 2011, dated 2016).

Columns and labels:
[1] = system: HCV-RNA replication in ORL8 cells (HCV-O strain, Li23-derived); assay: microbe, parasite or virus in culture; settings: for EC50: Hepatitis C virus, ORL8, 72 h; for SI (CC50/EC50) / suppression of the level of HCV-RNA replication: ORL8 cells; for suppression of the level of HCV-RNA replication: 1 μM
Text: (§1) Assay systems using OR6 cells (HCV-O strain), 1B-4R cells (HCV-1B-4 strain), and AH1R cells (HCV-AH1R strain) as HuH-7 cell-derived full-length HCV-RNA-replicating cells, and ORL8 cells (HCV-O strain), ORL11 cells (HCV-O strain), 1B-4RL cells (HCV-1B-4 strain), and KAH5RL cells (HCV-KAH5 strain) as Li23 cell-derived full-length HCV-RNA-replicating cells were used for the quantitative analysis of anti-HCV activity and evaluation of a cytotoxic effect in the present invention. The three cell lines, i.e., the 1B-4R cells, the 1B-4RL cells, and the KAH5RL cells have been disclosed in WO 2010/026965 A1. The AH1R cells may be produced with reference to Mori K et al., BBRC, 371:104-109, 2008 and WO 2010/026965 A1. In addition, all the HCV strains belong to genotype 1b.
As necessary, an increase or decrease in expression level of an HCV protein (core protein) was examined by a Western blot method.
(§2) In the measurement of the renilla luciferase activity and the measurement by the WST-1 method, experiments were performed in three wells independent of each other, and their means and standard deviation were calculated.
The anti-HCV activities of N-89 and N-251 were examined using ORL8 cells and the EC50 values were calculated. An experimental scale and schedule are the same as those in Example 1.
N-89 and N-251 were added so as to achieve concentrations of 5 μM, a 2-fold dilution series from 5 μM (2.5, 1.3, 0.63, 0.31, 0.16, and 0.08 μM), and 0. The luciferase activities were measured 72 hours after the culture.
The anti-HCV activity of artemisinin was examined using OR6 cells and ORL8 cells and the EC50 values were calculated. An experimental scale and schedule are the same as those in Example 1.
Artemisinin was added so as to achieve concentrations of 100 μM, a 2-fold dilution series from 100 μM (50, 25, 13, 6.3, 3.1, and 1.6 μM), and 0. The luciferase activities were measured 72 hours after the culture.

[2] = system: HCV-RNA replication in ORL11 cells (HCV-O strain, Li23-derived); assay: microbe, parasite or virus in culture; type: cell-based, HCV genotype 1b; settings: for EC50: Hepatitis C virus, 72 hours, renilla luciferase activity
Procedure: N-89 was added so as to achieve concentrations of 500 nM, a 2-fold dilution series from 500 nM (250, 125, 63, 31, 16, and 8 nM), and 0. The luciferase activities were measured 72 hours after the culture.
N-251 was added so as to achieve concentrations of 1 μM, a 2-fold dilution series from 1 μM (500, 250, 125, 63, 31, and 16 nM), and 0. The luciferase activities were measured 72 hours after the culture.

[3] = system: HCV core protein in OR6 cells; assay: Western blot analysis of HCV core protein expression in OR6 cells; type: cell-based, HCV genotype 1b; settings: 72 hours, N-89 0.31-20 μM, N-251 0.16-10 μM
Procedure: N-89 and N-251 were diluted with DMSO. After 72 hours, sampling was performed with 100 μL of 2×SDS buffer. 10 μL of a sample were applied to SDS-PAGE electrophoresis and subjected to Western blot analysis using an anti-HCV core antibody and an anti-β-actin antibody according to a conventional method. For the detection of β-actin, a sample diluted 10-fold with 2×SDS buffer in advance was used because the expression amount of β-actin was high.

renilla luciferase = assay: Influence on renilla luciferase activity in lysate of ORL8 cells; type: biochemical; settings: ORL8 cell lysate, concentrations of up to 20 μM
Procedure: In the ORL8 cells, the anti-HCV activity is evaluated by measuring the activity of renilla luciferase as a product of an exogenous gene introduced so as to be linked to HCV RNA.
Thus, N-89 or N-251 was added (5 μL) to a lysate (10 μL) of the ORL8 cells (1×10^5 cells, medium for Li23 cell line) so as to achieve final concentrations of 0, 5, 10, and 20 μM, and 50 μL of a substrate were further added thereto. Then, the luciferase activity was measured.
An actual luciferase activity value (RL activity value) at 100% on the ordinate axis was 2.2×10^5 in the case of N-89 and 2.8×10^5 in the case of N-251.

[4] = system: HCV-RNA replication in KAH5RL cells (HCV-KAH5 strain, Li23-derived); assay: microbe, parasite or virus in culture; type: cell-based, HCV genotype 1b; settings: for EC50: Hepatitis C virus, 72 hours, renilla luciferase activity
Procedure: N-89 was added so as to achieve concentrations of 10 μM, a 2-fold dilution series from 10 μM (5, 2.5, 1.3, 0.63, 0.31, and 0.16 μM), and 0. The luciferase activities were measured 72 hours after the culture.
N-251 was added so as to achieve concentrations of 5 μM, a 2-fold dilution series from 5 μM (2.5, 1.3, 0.63, 0.31, 0.16, and 0.08 μM), and 0. The luciferase activities were measured 72 hours after the culture.

[5] = system: HCV-RNA replication in OR6, 1B-4R, AH1R, ORL8, ORL11, 1B-4RL and KAH5RL cells; assay: Anti-HCV activity summarized over cells derived from various HCV strains (reporter assays); type: cell-based, HCV genotype 1b; settings: Hepatitis C virus, seven full-length HCV-RNA-replicating cell lines, read-out: EC50 values, range over all cells
[6] = system: HCV-RNA replication in 1B-4R cells (HCV-1B-4 strain, HuH-7-derived); assay: microbe, parasite or virus in culture; type: cell-based, HCV genotype 1b; settings: for EC50: Hepatitis C virus, 72 hours, renilla luciferase activity
Text: Assay systems using OR6 cells (HCV-O strain), 1B-4R cells (HCV-1B-4 strain), and AH1R cells (HCV-AH1R strain) as HuH-7 cell-derived full-length HCV-RNA-replicating cells, and ORL8 cells (HCV-O strain), ORL11 cells (HCV-O strain), 1B-4RL cells (HCV-1B-4 strain), and KAH5RL cells (HCV-KAH5 strain) as Li23 cell-derived full-length HCV-RNA-replicating cells were used for the quantitative analysis of anti-HCV activity and evaluation of a cytotoxic effect in the present invention. […] In addition, all the HCV strains belong to genotype 1b.

[7] = system: HCV core protein in HCV-O/RLGE cells; assay: Western blot analysis of HCV core protein in HCV-O/RLGE cells; type: cell-based; settings: 72 hours, concentration region in which β-actin did not reduce
Procedure: HCV-O/RLGE cells (Ikeda et al., Liver Int 31:871-880, 2011) were plated onto a 6-well plate (5×10^4 cells in 3 mL of medium for HuH-7 cell line per well) and cultured. […] 72 hours after the culture, the cells were lysed with 100 μL of 2×SDS buffer to prepare a sample for Western blot analysis. The Western blot analysis using an antibody against an HCV core protein (CP11; Institute of Immunology, Tokyo) was performed according to a conventional method. β-Actin was detected with an anti-β-actin antibody (AC-15; Sigma-Aldrich) in a sample diluted 10-fold with 2×SDS buffer.

[8] = system: HCV-RNA replication in 1B-4RL cells (HCV-1B-4 strain, Li23-derived); assay: microbe, parasite or virus in culture; type: cell-based, HCV genotype 1b; settings: for EC50: Hepatitis C virus, 72 hours, renilla luciferase activity
Procedure: For N-251, the results at concentrations of up to 1.3 μM are shown.

ORL8 cells = assay: Cytotoxic effect, WST-1 cell proliferation assay in ORL8 cells; settings: ORL8 cells
Text: as §1, §2
The cytotoxic effects of N-89 and N-251 were examined using ORL8 cells and the CC50 values were calculated. An experimental scale and schedule are the same as those in Example 1.
N-89 and N-251 were added so as to achieve concentrations of 5 μM, a 2-fold dilution series from 5 μM (2.5, 1.3, 0.63, 0.31, 0.16, and 0.08 μM), and 0. The WST-1 cell proliferation assay was performed 72 hours after the culture.
The cytotoxic effect of artemisinin was examined using OR6 and ORL8 cells and the CC50 values were calculated. An experimental scale and schedule are the same as those in Example 1. Artemisinin was added so as to achieve concentrations of 400 μM, a 2-fold dilution series from 400 μM (200, 100, 50, 25, and 13 μM), and 0. The WST-1 cell proliferation assay was performed 72 hours after the culture.

Row | SMILES | EC50 [1] | SI (CC50/EC50) [1] | suppression of the level of HCV-RNA replication [1] | SI (CC50/EC50) [2] | EC50 [2] | level of the HCV core protein (Western blot) [3] | inhibition on the renilla luciferase activity (renilla luciferase) | SI (CC50/EC50) [4] | EC50 [4] | EC50 [5] | SI (CC50/EC50) [6] | EC50 [6] | amount of HCV core protein (Western blot) [7] | SI (CC50/EC50) [8] | EC50 [8] | cytotoxicity at 1 μM (WST-1 assay) (ORL8 cells) | CC50 (ORL8 cells; 72 hours, WST-1)
1 | C1CCCCCC2(CCCCC1)OOCCCOO2 [N-89, 1,2,6,7-tetraoxaspiro[7,11]nonadecane] | 89 nM | 26 | 99% | 12 | 45 nM | reduced depending on the concentrations | did not show any inhibition | 13 | 190 nM | 25 to 660 nM | 22 | 420 nM | clearly reduced | 20 | 120 nM | not exhibiting cytotoxicity | 
2 | OCCCCCCC1COOC2(CCCCCCCCCCC2)OOC1 [N-251, 6-(1,2,6,7-tetraoxaspiro[7,11]nonadec-4-yl)] | 100 nM | 13 | 99% | 19 | 59 nM | reduced depending on the concentrations | did not show any inhibition | 11 | 290 nM | 59 to 980 nM | 3.9 | 980 nM | clearly reduced | 8.3 | 230 nM | not exhibiting cytotoxicity | 1300 nM
